pIC50: −log10 of the molar value.
Legend:
[1] = tested on: HL-60 cells; experiment: Lysosomal deacidification and inhibition assay; assay type: cell-based, human; details: HL-60, NH4Cl 30 mM
Protocol: Assays to assess the effect of lysosomal activity on prodrugs were performed as follows: HL-60 cells were plated into 96-well plates at a concentration of 2.5 × 10^5 cells ml^−1 in 180 µl media. Cells were treated with 10 µl of a stock of NH4Cl in PBS (to obtain an in-plate concentration of 3 or 30 mM), 10 µl of a dilution of a DMSO stock of E64d in PBS (to obtain an in-plate concentration of 30 μM), PBS only or a dilution of DMSO in PBS. Cells were incubated for 30 min. Following this, 10 µl of a stock of test compound made by dilution of a DMSO stock into media was added. DMSO was present in-plate at a maximum of 0.2%. Cells were incubated overnight for 16 h. Following incubation, media was replaced with media containing CellTiter-Blue (Promega) in 1:4 dilution and the plates were incubated for 6 h. The fluorescence of the plates was recorded (excitation, 555 nm; emission, 585 nm; MiniMax i3x Reader, Molecular Devices). Cell viability was calculated by division of the fluorescence intensity of treated wells by that of the average fluorescence intensity of the relevant negative control wells.

[2] = tested on: AML cell line MOLM-13; experiment: Viability assay with small-molecule prodrugs, MOLM-13; assay type: cell-based; details: 5 µM, 24 h
Protocol: (§1) For assays assessing cytotoxicity of β-lapachone versus small-molecule prodrugs, antibodies and ADCs, suspension cells were plated into 24-well plates at a density of 2.5 × 10^5 cells ml^−1 in 240 µl. Stocks of ADC or antibody in PBS were normalized to 12.5 µM. Serial dilutions of compound were made up in PBS. Then, 60 µl of each stock of either PBS or compound in PBS was added to the cells to achieve the desired final concentration. After the specified incubation time, toxicity was assessed by counting of live cells using the trypan blue exclusion method with a Countess II Automated Cell Counter (ThermoFisher Scientific) according to the manufacturer’s instructions. Cell viability was determined by dividing the average live cell number of treated wells by the average live cell number for control wells treated with PBS only. IC50 values were calculated using GraphPad Prism software. Note: for the assay performed over 96 h, 5% human serum was added to media instead of 10% fetal bovine serum, to limit non-specific antibody internalisation. This had little effect on ADC toxicity.

[3] = Quantitative LC-MS/MS of β-lapachone in xenograft mouse tumour; assay type: in vivo, NOD-SCID mice; details: fixed tumour homogenate of mice treated with ADC Gem-HC-239iC-BL
Protocol: Concentrations of β-lapachone in formalin-fixed tumour and the respective formol supernatant were quantified using reversed-phase ultra-high-performance liquid chromatography tandem mass spectrometry as previously described. Care was taken during sample handling to minimize exposure to light, and amber glass/plastic and foil wrapping were used where possible. Tumour tissue was homogenized to a concentration of 200 mg ml^−1 with PBS. An aliquot of homogenate or formol supernatant sample was transferred to a fresh tube with cryptotanshinone (internal standard) in ethyl acetate for liquid–liquid extraction. Samples were mixed, centrifuged and the ethyl acetate layer transferred to a 96-well plate, evaporated and reconstituted in 0.1% formic acid in acetonitrile:water 70:30. PBS was used as the surrogate matrix for calibration standards and quality-control samples. The calibration ranges were 0.25–250 ng g^−1 (homogenate) and 0.05–50 ng ml^−1 (formol). The analytical batches included quality-control samples at low, medium and high concentrations. The analysis was performed on a Shimadzu Nexera X2 UHPLC coupled to a Sciex TripleTOF 6600 mass spectrometer. The extracted samples were injected onto a Phenomenex Kinetex EVO C18, 1.7 µm, 50 × 2.1 mm analytical column, at 35 °C. […]

[4] = tested on: CD33+ HL-60 cells; experiment: Viability assay with small-molecule prodrugs and ADCs, HL-60; assay type: cell-based, human; details: Homo sapiens, read-out: IC50 against CD33+ HL-60 cells
Protocol: as §1

[5] = tested on: HL-60 cells; experiment: Cellular ROS detection with 2',7'-dichlorodihydrofluorescein diacetate; assay type: cell-based, human; details: 50 µM, 15 min
Protocol: To determine ROS generation by compounds in leukaemia cells, HL-60 cells were washed with PBS, then incubated in serum-free media (10 ml of 1.6 × 10^6 ml^−1 cell concentration) with 2,7-dichlorofluorescin diacetate at 20 µM for 30 min at 37 °C. Following this, the cells were washed with PBS and resuspended in Fluorbrite–DMEM media (ThermoFisher) (10 ml). Then, 450 µl of the cell mixture was seeded into wells of a clear flat-bottomed 12-well plate, to which 50 µl of a 10× stock of the compounds in media had been already added, to achieve a final compound concentration of 50 µM. The 10× media stocks were made by 100-fold dilution of DMSO compound stocks, to ensure a final in-plate DMSO concentration of 0.1%. DMSO 0.1% only was used as a negative control. […] After plating the cells were immediately incubated at 37 °C in the dark for 15 min before the fluorescence of the wells (excitation, 485 nm; emission, 535 nm) was recorded (MiniMax i3x Imager, Molecular Devices).

[6] = tested on: range of cancer cell lines, including leukaemia, breast, colon and cervical cancer; experiment: Viability assay (CellTiter-Blue) with small-molecule lapachone models; assay type: cell-based; details: 48 h
Protocol: Assays assessing cytotoxicity of β-lapachone and derivatives were performed by CellTiter-Blue assay (Promega) according to the manufacturer’s instructions. Briefly, adherent cancer-cell lines were plated at 20,000 cells per well in 96-well plates or suspension cell lines were plated at a concentration of 2 × 10^5 cells ml^−1 in 24-well plates. Compound stocks in media were made by dilution of DMSO stocks containing the compound of interest to obtain a final in-plate DMSO concentration of only 0.1%. Incubation was performed for 48 h. Following incubation, media was replaced with media containing CellTiter-Blue (Promega) in 1:10 dilution and the plates were incubated for 1.5–4 h. The fluorescence of the plates was recorded (excitation, 555 nm; emission, 585 nm; MiniMax i3x Reader, Molecular Devices). Cell viability was calculated by division of the fluorescence intensity of treated wells by that of the calculated average fluorescence intensity of replicate negative control wells containing cells with 0.1% DMSO only. IC50 values were calculated using GraphPad Prism 8 software.

Row | Structure (SMILES) | toxicity with NH4Cl at 30 mM [1] | toxicity to MOLM-13 at 5 µM [2] | concentration of 1 in tumour tissue [3] | pIC50 [4] | ROS generation in HL-60 [5] | decrease in toxicity relative to 1 [6]
1 | CC1(C)CCC2=C(O1)c1ccccc1C(=O)C2=O [Compound 1, β-lapachone, reference compound] | increase in toxicity | complete cell death | 0.327 ng/g | ~6.00 | – | –
2 | CC1(C)CCC2=C(O1)c1ccccc1C(O)(Cc1ccccc1)C2=O (stereo not drawn) [Compound 24, benzyl β-lapa-ketol] | – | – | – | – | did not generate detectable ROS | > 20 fold

Source: paper PMC9252919, “Controlled masking and targeted release of redox-cycling ortho-quinones via a C–C bond-cleaving 1,6-elimination” (Nature Chemistry, 2022)
